Assay results: patent US20140288115A1, “COMPOSITIONS AND METHODS FOR TREATING BRAIN CANCER” (UNIVERSITY OF SOUTHERN CALIFORNIA, priority 2011, published 2014)

How the values were obtained:
[1] = test system: TMZ-resistant glioma cell lines; experiment: cytotoxicity of noscapine in TMZ-resistant glioma cell lines; format: cell-based
[2] = test system: TMZ-resistant tumor cells; experiment: migration and invasion of TMZ-resistant tumor cells; format: cell-based
[3] = test system: TMZ-resistant U251 glioma cells; experiment: intracranial rodent xenograft tumor model, survival; format: in vivo, nude mice
Description: TMZ-resistant U251 glioma cells (R) were implanted intracranially into nude mice. After 7 days, treatment was initiated. […] Survival was used as an endpoint; * signifies statistical significance (p<0.05).
After 7 days, treatment was initiated.

[4] = in vivo, cited from earlier work

For `COc1ccc2c(c1OC)C(=O)O[C@@H]2[C@H]1c2c(cc3c(c2OC)OCO3)CCN1C` [noscapine, (3S)-6,7-Dimethoxy-3-[(5R)-5,6,7,8-tetrahydro-4-methoxy-6-methyl-1,3-dioxolo (4,5-g)isoquinolin-5-yl]-1(3H)-isobenzofuranone], the cell death ([1]; 4 different TMZ-resistant glioma cell lines) was “caused cell death”, the cell cycle arrest ([1]; TMZ-resistant glioma cell lines, prolonged arrest causes cell cytotoxicity) was “caused an arrest in the G2/M phase of cell cycle” and the “invasion of TMZ-resistant tumor cells” value [2] was “decreased”. The “migration of TMZ-resistant tumor cells” value [2] was “decreased”, the tumor growth ([3]; animal models) was “reduced tumor growth” and the “survival of TMZ-resistant tumor bearing animals” value ([3]; noscapine 225 mg/kg twice daily by gavage, treatment from day 7 after implantation) was “significantly enhanced survival”. The oral bioavailability ([4]; po) was “orally bioavailable” and the “crossing of the blood-brain-barrier” value [4] was “known to cross the blood-brain-barrier”.
